Assay results from patent publication US4952580A, “Pesticidal polyhaloalkene derivatives” (priority 1988, dated 1990).
Like-named read-outs stand apart in the source and are kept apart here.

Legend:
root-knot nematode [1] = experiment: Residual Root-Knot Nematicidal Activity; assay type: in vivo, Meloidogyne incognita; conditions: read-out: Percent Control
Description: (§1) Compounds of this invention were tested as follows for nematicidal and anthelmintic activity as dust formulations (initial and residual activity) and as acetone/water formulations (systemic activity). The formulations are described above.
The ability of nematicidal compounds of the invention to control root-knot nematode infestations in soil over a period of time after treatment was evaluated. Dust formulations of test compound (5%) were incorporated into soil samples at test compound rates of 5 and 10 ppm. Subsequently, the treated soil samples were inoculated with nematode inoculum at weekly intervals, and Knot Index and Percent Control determined on seedlings planted in the soil samples. Specifically, soil treated with test compound was placed in 7.6 cm diameter fiber pots and stored in a greenhouse. At one, two and four weeks post-treatment, the appropriate number of pots was infested with root-knot nematode eggs and larvae. A cucumber or tomato seedling was planted in each pot and evaluated approximately two weeks after the soil infestation to obtain the test results reported in Tables 3 and 3a appended.

root-knot nematode [2] = experiment: Systemic Activity (basipetal, foliar spray) against root-knot nematode; assay type: in vivo, Meloidogyne incognita; conditions: 336 h, read-out: Percent Control; for pest or weed control at 2000 ppm: foliar, Table 8, rate 2000 ppm
Description: as §1
Compounds of the invention were tested for basipetal systemic activity against the root-knot nematode. In this test, tomato plants are grown in 10.2 cm diameter fiber pots containing steam-pasteurized soil mix (50%, soil, 50% sand) until 4-6 true leaves appear. Three of the pots are then placed on a turntable in a spray hood and the plants sprayed with 50 ml of water/acetone solution containing the test compound. The soil surface is covered during the spraying to prevent spraying of the soil. After treatment, the potted plants are placed in a lighted drying chamber. The plants are then grown in a growth chamber at 25° C. for three days and inoculated with a standard nematode culture by incorporating the inoculum into the top cm of soil in the pots. The plants are returned to the growth chamber for about two weeks at which time the pots are allowed to dry until the plants begin to wilt. The roots are shaken free of soil and the degree of galling (swelling) noted as compared to galling of untreated control plants. The results are expressed as Knot Index and Percent Control as defined in the initial root-knot nematode activity tests reported above in Table 2.

[3] = system: root-knot nematode (Meloidogyne incognita); experiment: Initial Root-Knot Nematicidal Activity; assay type: in vivo; conditions: 336 h, read-out: Percent Control; for pest or weed control at 0.078 ppm: Table 2, Application Rate 0.078 ppm; for pest or weed control at 0.313 ppm: Table 2, Application Rate 0.313 ppm; for pest or weed control at 1.25 ppm: Table 2, Application Rate 1.25 ppm; for pest or weed control at 0.312 ppm: Table 2, Application Rate 0.312 ppm
Description: as §1
The activity against root-knot nematode (Meloidogyne incognita) was determined by incorporating the compound of the invention in nematode infested soil at rates in the range of 10 ppm to 0.078 ppm of compound. Several tomato or cucumber seedlings were planted in the nematode infested soil. Two weeks after planting the test pots were evaluated to ascertain the degree of galling (swelling) on the roots of the plants, indicating the control provided by the test chemical.
The results expressed as precent control (determined by knot index) are set forth as averages in Table 2 (appended). Knot index is a numerical designation assigned at evaluation, having the following meanings:
Percent control is related to knot index as follows:
When the Knot Index is between 0 and 1 it is further subdivided as follows to indicate how close the percent control is to 75% or 100%: […]

lesion nematode = experiment: Lesion Nematode Test; assay type: in vivo; conditions: Table 5, read-out: Percent Control; for pest or weed control at 2.5 ppm: rate 2.5 ppm
Description: as §1
The procedure was substantially the same as in the stunt nematode test described above except that pea seedlings were used. The results (Table 5 appended) show good control with many of the compounds at the application rates tested as compared with untreated samples (no control). "Percent Control" is defined as follows: [formula]

stunt nematode = experiment: Stunt Nematode Test; assay type: in vivo; conditions: 672 h, Table 4a; rate 5 ppm; read-out: Percent Control
Description: as §1
The procedure was substantially the same as in the […] seedling, with subsequent inoculation of the soil with combined larvae and adult stunt nematodes. The samples were evaulated approximately four weeks after infestation. […] "Percent control" means the difference between average population counts between untreated and treated samples, divided by average population count of untreated sample, multiplied by 100.

root-knot nematode [4] = experiment: Soil Mobility against root-knot nematode; assay type: in vivo, Meloidogyne incognita; conditions: 336 h, read-out: Percent Control
Description: as §1
The ability of nematicidal compounds of the invention to move through nematode-infested soil […] infested soil, and subsequently eluting the soil with 15 cm of water (equivalent to 15 cm of rainfall) into a series of two or more pots of untreated, but nematode-infested, soil. Specifically, the pots were 8 cm diameter plastic pots containing a 10 cm^3 layer of sand over a coarse grade filter paper disc. Sufficient soil was placed over the sand to fill the pots, and a second filter paper disc was placed over the soil. Each test compound-treated pot was nested over a series of two or more pots containing untreated, but nematode-infested soil, also containing sand filter paper discs as described for the treated soil pots. Fifteen cm of water was slowly dripped into the top pots and the pots were allowed to drain for 16-18 hours to remove excess water. The top filter of each pot was then removed and the pots were planted with a cucumber or tomato seedling. […] "Knot Index" and "Percent Control" are as defined in the initial root-knot nematode tests above.

Caenorhabditis elegans = experiment: C. Elegans Nematode Screening Test and Evaluation (in-vitro); conditions: Caenorhabditis elegans; for inhibition at 5 ppm / inhibition at 1.25 ppm / inhibition at 2.5 ppm: read-out: Percent Inhibition of Reproduction; for mortality at 5 ppm / mortality at 1.25 ppm / mortality at 2.5 ppm: read-out: Percent Mortality
Description: This in-vitro test using the free-living nematode Caenorhabditis elegans, is a modification of the assay developed by Simpkin and Coles, J. Chem. Tech. […] One milliliter of a test medium consisting of 5 mg ampicillin, 10,000 units of mycostatin and 10 ml of a dense suspension of Escherichia coli per 100 ml of a buffer solution, was pipetted into each well of a 24-well microtiter plate. The candidate nematicide, suspended at the appropriate concentration in dimethylsulfoxide, was added to the wells in […] volumes. Each rate of application was replicated two to three times. After thorough mixing of the contents of each well, 50 to 100 μl of a nematode suspension in a buffer was added so that each well received 10-15 nematodes. After the nematodes were added, the microtiter plates were incubated at 20° C. for 5-6 days.
The effect of the candidate nematicide on the survival and the reproduction of C. elegans was then evaluated by comparison of the level of population developed in the treated wells with that in untreated wells. Specific effects on population development, such as reduced egg hatch or molting disruption, were noted if they were evident.

cyst nematode = experiment: Cyst Nematode Test; assay type: in vivo; conditions: Table 6; rate 5 ppm; read-out: Percent Control
Description: as §1
The procedures was substantially the same as described in the stunt nematode test except soybean seedlings were used. "Percent Control" (Table 6 appended) is as defined in the stunt nematode test results.

[5] = 672 h, Table 3, inoculation 4 weeks after treatment
[6] = Table 2, Application Rate 0.156 ppm
[7] = Table 2, Application Rate 0.625 ppm
[8] = Table 2, Application Rate 2.5 ppm

Structure (SMILES): FC(F)=C(F)CCSc1nnc(SCCC(F)=C(F)F)s1 [Compound 13, 2,5-di(3,4,4-trifluoro-3-butenylthio)-1,3,4-thiadiazole]
- pest or weed control at 5 ppm (root-knot nematode [1]; 168 h, Table 3, inoculation 1 week after treatment): 98%
- pest or weed control at 10 ppm (root-knot nematode [1]; 168 h, Table 3, 10 ppm, inoculation 1 week after treatment): 99%
- pest or weed control at 5 ppm (root-knot nematode [1]; 336 h, Table 3, inoculation 2 weeks after treatment): 98%
- pest or weed control at 10 ppm (root-knot nematode [1]; 336 h, Table 3, 10 ppm, inoculation 2 weeks after treatment): 99%
- pest or weed control at 5 ppm (root-knot nematode [1]; [5]): 75%
- pest or weed control at 10 ppm (root-knot nematode [1]; 672 h): 95%
- pest or weed control at 2000 ppm (root-knot nematode [2]): 79%
- pest or weed control at 0.078 ppm [3]: 0%
- pest or weed control at 0.156 ppm [3, 6]: 13%
- pest or weed control at 0.313 ppm [3]: 71%
- pest or weed control at 0.625 ppm [3, 7]: 96%
- pest or weed control at 1.25 ppm [3]: 99%
- pest or weed control at 2.5 ppm [3, 8]: 99%
- pest or weed control at 0.625 ppm [3]: 95%

Structure (SMILES): FC(F)=C(F)CCSc1nnc(SCC2CC2)s1 [Compound 15, 2-cyclopropylmethylthio-5-(3,4,4-trifluoro-3-butenylthio)-1,3,4-thiadiazole]
- pest or weed control at 2000 ppm (root-knot nematode [2]): 83%
- pest or weed control at 0.313 ppm [3]: 6%
- pest or weed control at 0.625 ppm [3, 7]: 31%
- pest or weed control at 1.25 ppm [3]: 97%
- pest or weed control at 2.5 ppm [3, 8]: 100%

Structure (SMILES): FC(F)=C(F)CCSc1nnc(-c2ccc(Cl)cc2)o1 [Compound 17, 2-(4-chlorophenyl)-5-(3,4,4-trifluoro-3-butenylthio)-1,3,4-oxadiazole]
- pest or weed control at 2000 ppm (root-knot nematode [2]): 42%
- pest or weed control at 2.5 ppm [3, 8]: 100%
- pest or weed control at 5 ppm ([3]; Table 2, Application Rate 5.0 ppm): 100%
- pest or weed control at 10 ppm ([3]; Table 2, Application Rate 10.0 ppm): 100%

Structure (SMILES): FC(F)=C(F)CCSc1nnc(-c2ccccc2)o1 [Compound 16, 2-phenyl-5-(3,4,4-trifluoro-3-butenylthio)-1,3,4-oxadiazole]
- pest or weed control at 2000 ppm (root-knot nematode [2]): 67%
- pest or weed control at 0.313 ppm [3]: 0%
- pest or weed control at 0.625 ppm [3, 7]: 25%
- pest or weed control at 1.25 ppm [3]: 44%
- pest or weed control at 2.5 ppm [3]: 95%

Structure (SMILES): FC(F)=C(F)CCSc1nnc(SCc2ccccc2)s1 [Compound 32, 2-phenylmethylthio-5-(3,4,4-trifluoro-3-butenylthio)-1,3,4-thiadiazole]
- pest or weed control at 1.25 ppm (lesion nematode; rate 1.25 ppm): 0%
- pest or weed control at 2.5 ppm (lesion nematode): 28%
- pest or weed control at 0.625 ppm (lesion nematode; rate .625 ppm): 0%
- pest or weed control at 5 ppm (stunt nematode): 84%
- pest or weed control at 5 ppm (root-knot nematode [1]; 168 h, Table 3a, 5% dust, inoculation 1 week post-treatment): 99%
- pest or weed control at 5 ppm (root-knot nematode [1]; 336 h, Table 3a, 5% dust, inoculation 2 weeks post-treatment): 99%
- pest or weed control at 5 ppm (root-knot nematode [1]; 672 h, Table 3a, 5% dust, inoculation 4 weeks post-treatment): 82%
- pest or weed control at 5 ppm (root-knot nematode [4]; Table 7a, 5% dust, 5 ppm, BOTTOM container): 25%
- pest or weed control at 5 ppm (root-knot nematode [4]; Table 7a, 5% dust, 5 ppm, MIDDLE container): 75%
- pest or weed control at 5 ppm (root-knot nematode [4]; Table 7a, 5% dust, 5 ppm, TOP container): 99%
- pest or weed control at 2000 ppm (root-knot nematode [2]): 25%
- inhibition at 5 ppm (Caenorhabditis elegans; Table 9 screen): 100%
- mortality at 5 ppm (Caenorhabditis elegans; Table 9 screen): 100%
- mortality at 5 ppm (Caenorhabditis elegans; Table 10 evaluation): 8%
- inhibition at 1.25 ppm (Caenorhabditis elegans; Table 10 evaluation): 25%
- mortality at 1.25 ppm (Caenorhabditis elegans; Table 10 evaluation): 0%
- inhibition at 2.5 ppm (Caenorhabditis elegans; Table 10 evaluation): 42%
- mortality at 2.5 ppm (Caenorhabditis elegans; Table 10 evaluation): 0%
- pest or weed control at 0.078 ppm [3]: 8%
- pest or weed control at 0.156 ppm [3, 6]: 31%
- pest or weed control at 0.312 ppm [3]: 78%
- pest or weed control at 0.625 ppm [3, 7]: 97%
- pest or weed control at 1.25 ppm [3]: 99%
- pest or weed control at 2.5 ppm [3, 8]: 100%

Structure (SMILES): FC(F)=C(F)CCSc1nc(Cl)ns1 [Compound 8, 3-chloro-5-(3,4,4-trifluoro-3-butenylthio)-1,2,4-thiadiazole]
- pest or weed control at 5 ppm (root-knot nematode [1]; [5]): 98%
- pest or weed control at 5 ppm (root-knot nematode [4]; Table 7, 5 ppm, Bottom container): 96%
- pest or weed control at 5 ppm (root-knot nematode [4]; Table 7, 5 ppm, Middle container): 100%
- pest or weed control at 5 ppm (root-knot nematode [4]; Table 7, 5 ppm, Top container): 100%
- pest or weed control at 5 ppm (cyst nematode): 92%
- pest or weed control at 0.078 ppm [3]: 58%
- pest or weed control at 0.312 ppm [3]: 100%
- pest or weed control at 0.625 ppm [3, 7]: 100%
- pest or weed control at 1.25 ppm [3]: 100%
- pest or weed control at 2.5 ppm [3, 8]: 100%
- pest or weed control at 0.156 ppm [3]: 95%

Structure (SMILES): FC(F)=C(F)CCSc1nnc(SCc2ccc(Br)cc2)s1 [Compound 33, 2-(4-bromophenylmethylthio)-5-(3,4,4-trifluoro-3-butenylthio)-1,3,4-thiadiazole]
- pest or weed control at 2.5 ppm (lesion nematode): 46%
- pest or weed control at 5 ppm (stunt nematode): 52%
- pest or weed control at 2500 ppm (root-knot nematode [2]; Table 8, rate 2500 ppm): 17%
- inhibition at 5 ppm (Caenorhabditis elegans; Table 9 screen): 100%
- mortality at 5 ppm (Caenorhabditis elegans; Table 9 screen): 100%
- mortality at 5 ppm (Caenorhabditis elegans; Table 10 evaluation): 100%
- inhibition at 1.25 ppm (Caenorhabditis elegans; Table 10 evaluation): 100%
- mortality at 1.25 ppm (Caenorhabditis elegans; Table 10 evaluation): 100%
- inhibition at 2.5 ppm (Caenorhabditis elegans; Table 10 evaluation): 100%
- mortality at 2.5 ppm (Caenorhabditis elegans; Table 10 evaluation): 100%
- pest or weed control at 0.312 ppm [3]: 38%
- pest or weed control at 0.625 ppm [3, 7]: 70%
- pest or weed control at 1.25 ppm [3]: 84%
- pest or weed control at 2.5 ppm [3, 8]: 97%
